Measured values from the supplement of paper PMC10307832.

What was measured:
Experiment in all cases: relative viability (nuclei count vs DMSO), 5 days (fraction); higher = more cells survive
CX-5461 = compound: Cc1cnc(CNC(=O)c2c(=O)c3ccc(N4CCCN(C)CC4)nc3n3c2sc2ccccc23)cn1 [CX-5461]
Summary of the method: (§1)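 Cells of lung cancer lines were placed in 1536-well plates and kept overnight at 37 °C. Pinning then delivered five library-drug doses (not always all listed), spaced by √10, onto plates anchored with vehicle, and the cells were left 5 days without changing medium. One step fixed, permeabilised and stained them with Hoechst, and MetaXpress counted nuclei in 4× images. Viability, as a median over plates, is treated-well nuclei divided by vehicle-well nuclei, with acceptance only at control CV below 25% and at least one doubling.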

IMD-0354 = compound: O=C(Nc1cc(C(F)(F)F)cc(C(F)(F)F)c1)c1cc(Cl)ccc1O [IMD-0354]
Summary of the method: as §1

CX-5461 + Pictilisib = compound: Cc1cnc(CNC(=O)c2c(=O)c3ccc(N4CCCN(C)CC4)nc3n3c2sc2ccccc23)cn1 [CX-5461] + CS(=O)(=O)N1CCN(Cc2cc3nc(-c4cccc5[nH]ncc45)nc(N4CCOCC4)c3s2)CC1 [Pictilisib] (partner 1 µM)
Summary of the method: (§2)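 Relative viability equals treated-well nuclei counts divided by vehicle-well nuclei counts. Counts came from 4× images of lung cancer cell lines grown in 1536-well plates for 5 days after pin-tool dosing on the day after seeding. Dosing used one drug alone or a fixed anchor-drug dose plus five library-drug doses (not always all listed) in √10 steps, and values are medians of duplicate plates.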

CX-5461 + Alpelisib = compound: Cc1cnc(CNC(=O)c2c(=O)c3ccc(N4CCCN(C)CC4)nc3n3c2sc2ccccc23)cn1 [CX-5461] + Cc1nc(NC(=O)N2CCC[C@H]2C(N)=O)sc1-c1ccnc(C(C)(C)C(F)(F)F)c1 [Alpelisib] (partner 2 µM)
Summary of the method: as §2

UMC-11
relative viability (CX-5461; 0.01 µM): 1.09
relative viability (CX-5461; 0.03162 µM): 0.994
relative viability (CX-5461; 0.1 µM): 0.928
relative viability (CX-5461; 0.3162 µM): 0.909
relative viability (CX-5461; 1 µM): 0.382
relative viability (IMD-0354; 0.04 µM): 1.1
relative viability (IMD-0354; 0.1265 µM): 1.04
relative viability (IMD-0354; 0.4 µM): 0.551
relative viability (IMD-0354; 1.265 µM): 0.224
relative viability (IMD-0354; 4 µM): 0.271
relative viability (CX-5461 + Pictilisib; first compound 0.01 µM): 0.869
relative viability (CX-5461 + Pictilisib; first compound 0.03162 µM): 0.835
relative viability (CX-5461 + Pictilisib; first compound 0.1 µM): 0.76
relative viability (CX-5461 + Pictilisib; first compound 0.3162 µM): 0.149
relative viability (CX-5461 + Pictilisib; first compound 1 µM): 0.259
relative viability (CX-5461 + Alpelisib; first compound 0.01 µM): 0.932
relative viability (CX-5461 + Alpelisib; first compound 0.03162 µM): 1.21
relative viability (CX-5461 + Alpelisib; first compound 0.1 µM): 1.07
relative viability (CX-5461 + Alpelisib; first compound 0.3162 µM): 0.956
relative viability (CX-5461 + Alpelisib; first compound 1 µM): 0.391
